Legend:
Assay type in all cases: cell-based
S. aureus = experiment: Rate of kill assessment, direct repeat inoculation of medium containing catheter; conditions: sample taken 5 seconds after each inoculation
Method: (§1) A microbiology assessment was performed using a medium of the invention comprising hypochlorous acid in an analogous manner to that performed for Example 2. However, for this test, following each inoculation, a sample was only taken after 5 seconds to evaluate the rate of kill. Further, in addition to the previous microorganisms tested, a further gram-positive organism, S. aureus, was tested.
(§2) A microbiology assessment was performed using a medium comprising chlorine dioxide in an analogous manner to that performed for Example 5.

E. faecalis = experiment: as above; conditions: for Reduction in microbial colony forming unit (CFU) counts: reinoculation at 24 hours; for Time up to which rapid kill within 5 seconds following inoculation was observed: repeat inoculation, sample taken 5 seconds after each inoculation
Method: (§3) To assess the sterilisation potential of the medium comprising chlorine-containing species, a microbiology assessment was conducted which consisted of rate of kill assessments against repeat inoculation of E. coli and E. faecalis. These organisms were selected as they are commonly identified in catheter associated urinary tract infections. The selection also covers both gram-positive and gram-negative species to test the broad spectrum antimicrobial performance of the medium.
(§4) Intermittent urinary catheters, as used for Example 1, were provided and submerged in an aqueous medium comprising sodium hypochlorite and sodium chloride. The media comprising the catheters were respectively inoculated with the two microorganisms.
(§5) A direct inoculation method was applied against each microorganism. The test organisms were reinoculated following 1, 2, 3, 4, 5, 6, and 24 hours. Following each inoculation, a sample was taken after 5 seconds, 1, 5, 10 and 15 minutes to evaluate the rate of kill.
as §1, §2
(§6) A microbiology assessment was performed using the media comprising hypochlorous acid in an analogous manner to that performed for Example 2. However, for this test, following each inoculation, samples were taken after 5 seconds, 30 seconds, 1, 2, and 5 minutes to evaluate the rate of kill.

E. coli = experiment: as above; conditions: sample taken 5 seconds after each inoculation
Method: as §3, §4, §5, §1, §2, §6

[1] = test system: Escherichia coli NCIMB 14067; experiment: In vitro direct inoculation method, bacterial levels over 5 minutes
Method: (§7) An in vitro direct inoculation method was used to assess the antimicrobial activity of sulfanilamide in an intermittent urinary catheter scenario against […] Escherichia coli NCIMB 14067 and […] Enterococcus faecalis NCTC 12201; two microorganisms associated with urinary tract infections. Sulfanilamide concentrations of 0.1% and 0.01% were tested and bacterial levels monitored over a period of 5 minutes.
(§8) Representative colonies of the challenge microorganisms, from an 18-24 hour challenge culture plate, were dispersed in MRD to obtain an optical density (OD540nm) equivalent to approximately 1×10^8 CFU/mL. This was diluted to obtain a working concentration of 1×10^6 CFU/mL. A quantitative count was performed to confirm the inoculum level.
(§9) The challenge organism was prepared in MRD to a concentration of approximately 1×10^6 CFU/mL. This suspension was added in a 1 mL volume to 9 mL of sample (n=3 per sample, n=2 per control) in a sterile 30 mL universal and pipetted up and down to mix. Following each testing period, 5 seconds, 30 seconds, 1 minute, 2 minutes and 5 minutes, 100 μL of the test solution was transferred to 0.9 mL and 9.9 mL volumes of DENB (1:10 and 1:100 dilutions respectively). The most appropriate dilutions were inoculated (100 μL) onto duplicate pre-dried (tryptone soy agar) TSA plates and the inoculum spread using separate sterile L-shaped spreaders (for 10^−1 and 10^−2 dilutions, 0.5 mL were placed onto duplicate plates). The TSA plates were allowed to dry before being inverted and incubated at 35±3° C. for at least 48 hours. Following the incubation period, the number of bacterial colonies were counted on the most appropriate dilution for each dressing type i.e. between 25-250 CFU/plate.
(§10) The samples tested were: 0.1% sulfanilamide in sterile deionised water (SDW); 0.01% sulfanilamide in SDW; 100 ppm hypochlorous acid in SDW; and a SDW control.

[2] = test system: Enterococcus faecalis NCTC 12201; experiment: as above
Method: as §7, §8, §9, §10

E. coli NCIMB 14067 = experiment: Antimicrobial efficacy at very low concentrations, suspension test with total viable counts
Method: The antimicrobial efficacy of hypochlorous acid was tested at even lower concentrations (10, 25, and 50 ppm) against the challenging organism E. coli NCIMB 14067.
The representative colonies of E. coli NCIMB 14067 were dispersed in maximum recovery diluent (MRD) to obtain an optical density (OD540nm) equivalent to approximately 1×10^6 CFU/mL. A quantitative plate count was performed on this suspension to determine the total number of viable organisms inoculated. A new suspension was prepared for each concentration tested.
A 1000 ppm hypochlorous acid solution was diluted in sterile deionised water to provide the respective 10, 25 and 50 ppm hypochlorous acid solutions.
The hypochlorous acid samples were aliquoted into 9 mL volumes and 1 mL of the challenge organism suspension was added and mixed (the final number of bacteria present is now approximately 1×10^5 CFU/mL). Following 5, 30 seconds, 1, 2, and 5 minutes, 100 μL volumes were sampled and transferred to 0.9 mL and 9.9 mL of Dey-Engley Neutralising Broth (DENB) (to provide a 1:10 and 1:100 dilution respectively), and total viable counts were performed to establish the amount present. The plates were left to dry before being inverted and incubated at 35±3° C. for at least 48 hours. A negative control was also tested whereby 1 mL of the challenge organism suspension was added to 9 mL of MRD and tested as previously described. Following the incubation period, the number of CFUs were counted on the most appropriate dilution for each sample i.e. between 25-250 CFU/plate.

[3] = 100 ppm in SDW, within 5 seconds and for the remaining testing period
[4] = both concentrations tested (0.1% and 0.01% in SDW), any timepoint, 5 seconds to 5 minutes

SMILES: [O][Cl+][O-] [chlorine dioxide]
- Time up to which rapid kill within 5 seconds following inoculation was observed (S. aureus): up to 6 hours
- Reduction in microbial colony forming unit (CFU) counts (E. faecalis; after around 30 seconds of inoculation): 4 orders of magnitude
- Time up to which rapid kill within 5 seconds following inoculation was observed (E. faecalis): up to 6 hours
- Time up to which rapid kill within 5 seconds following inoculation was observed (E. coli): up to 24 hours

SMILES: OCl [hypochlorous acid]
- Time up to which rapid kill within 5 seconds following inoculation was observed (S. aureus): up to 6 hours
- Reduction in microbial colony forming unit (CFU) counts (E. faecalis; after 5 minutes of inoculation): over 3 orders of magnitude
- Time up to which rapid kill within 5 seconds following inoculation was observed (E. faecalis): up to 6 hours
- Time up to which rapid kill within 5 seconds following inoculation was observed (E. coli): up to 24 hours
- Numbers of challenge organism [1, 3]: undetectable
- Numbers of challenge organism [2, 3]: undetectable
- Bacterial level at the 1 minute timepoint (E. coli NCIMB 14067; 10 ppm, about 1×10^5 CFU/mL inoculum): undetectable
- Numbers of bacteria after 30 seconds (E. coli NCIMB 14067; 25 ppm, about 1×10^5 CFU/mL inoculum): undetectable
- Numbers of bacteria after 30 seconds (E. coli NCIMB 14067; 50 ppm, about 1×10^5 CFU/mL inoculum): undetectable
- CFU/mL of negative control (MRD) larger than for the samples (E. coli NCIMB 14067; all concentrations (10, 25, 50 ppm) and time points tested): over 4 orders of magnitude

SMILES: Nc1ccc(S(N)(=O)=O)cc1 [sulfanilamide, reference compound]
- Decrease in challenge organism numbers compared to the control [1, 4]: no decrease
- Decrease in challenge organism numbers compared to the control [2, 4]: no decrease
